Consider 34 molecules from PubChem BioAssay AID720588 (Broad Institute, 2013).

Calls of active or inactive are those of the source.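 How the source made its calls: active means fitted curve falls past a set limit of signal loss at no more than twice the top dose; inconclusive means flat fit between 30 and 70% signal loss, or poor fit; inactive means signal rise, flat within 30%, or crossing too high.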

This test in a line: ATP-based viability loss in HEK293T cells – cell-based, CellTiter-Glo luminescence, cherry-pick, set 3, cytotoxicity control, dose response (AID 720588). To be noted: HEK293T viability, CellTiter-Glo ATP luminescence, 72 h. On the technique in general: In ATP-based viability assays light output follows the ATP content of the culture.

Turning to `CC(=O)c1ccc(NC(=O)c2noc3c2CCC3)cc1`, the activity change, negative = cytotoxicity (at 26 µM (top of the series)) was -5.3% (inactive).

For `C[C@@H]1CN([C@@H](C)CO)C(=O)c2cccc(NS(=O)(=O)c3ccc(F)cc3)c2O[C@@H]1CN(C)Cc1ccc(C(=O)Nc2ccccc2N)cc1`, where the note is “at 26 µM (top of the series)”, the activity change, negative = cytotoxicity was -33.3% (inactive). Take `CC(C)NC(=O)N(C)C[C@@H]1Oc2cc(C#Cc3ccc(F)cc3)ccc2S(=O)(=O)N([C@H](C)CO)C[C@H]1C`: for the setting “at 26 µM (top of the series)”, the activity change, negative = cytotoxicity was -0.81% (inactive).

Take `Nc1ccc2c(c1)OC1(CCCC1)O2`: the activity change, negative = cytotoxicity (at 26 µM (top of the series)) was -16.1% (inactive). Still for that read-out and setting: the value for `O=c1[nH]c(=O)n([C@H]2C[C@H](O)[C@@H](CO)O2)cc1C(F)(F)F` was -10.4% (inactive). Still for that read-out and setting: the result for `O=C1C(=O)N(CCS(=O)(=O)c2ccccc2)c2ccccc21` reads 17.1% (inactive); that for `O=c1oc2cc(O)ccc2s1`, -7.52% (inactive); that for `C=CCn1c(O)c(N=Nc2ccccc2)c2ccccc21`, 11.3% (inactive). For the molecule `O=C(NCc1cccnc1)C1Cc2c(-c3ccc(Cl)cc3)ccnc2O1` (centres undefined), the activity change, negative = cytotoxicity (at 26 µM (top of the series)) is -17.5% (inactive). Same read-out and setting: the value for `COc1ccc(/C=N/Nc2ccc(C(=O)O)cc2)cc1Br` was -6.35% (inactive); that for `Nc1ncn([C@@H]2O[C@H](CO)[C@@H](O)[C@H]2O)c(=O)n1` was 4.13% (inactive). Still for that read-out and setting: the result for `O=C(O)c1ccc(N/N=C/c2c(F)cccc2Cl)cc1` reads -29.9% (inactive). On the same count and under the same terms, the value for `COc1cc(OC)cc(-c2cc3nc(C)c(CCC(=O)O)c(C)n3n2)c1` was 11.4% (inactive); that for `C[C@@H]1CN([C@@H](C)CO)S(=O)(=O)c2ccc(C#CCN(C)C)cc2O[C@@H]1CN(C)Cc1ccncc1` was 52.2% (inactive). As for `CCS(=O)(=O)N1Cc2ccccc2CC1C(=O)Nc1nnc(SCc2ccc(C#N)cc2)s1` (centres undefined), where the note is “at 26 µM (top of the series)”, the activity change, negative = cytotoxicity was -8.94% (inactive). Same read-out and setting: the value for `O=C(CCCCl)Nc1nc(-c2ccc3c(c2)OCCO3)cs1` was 13.6% (inactive); that for `OC[C@H]1O[C@@H](n2cnc3c(NCc4ccco4)ncnc32)[C@H](O)[C@@H]1O` was -42.7% (inactive); that for `Cc1ccc(/C=C2\SC(=S)N(CCCC(=O)NNC(=O)c3ccccc3O)C2=O)cc1` was -14.6% (inactive).

Regarding `COc1ccc(N=C2C(=O)Nc3ccc(C)c(Br)c32)cc1`, the activity change, negative = cytotoxicity (at 26 µM (top of the series)) was -21.9% (inactive). The same measure, in the same setting: the value for `C[C@H]1CN([C@@H](C)CO)C(=O)c2cccc(NC(=O)c3ccc(-c4nccs4)cc3)c2O[C@@H]1CN(C)Cc1ccc(C(=O)Nc2ccccc2N)cc1` was 28.9% (inactive); that for `COc1ccc(CCCNC(=O)C2Cc3c(-c4ccc5c(c4)OCO5)ccnc3O2)cc1` (centres undefined) was -7% (inactive); that for `Cc1ccsc1/C=N/Nc1cccc(C(=O)O)c1` was -23% (inactive). On the same count and under the same terms, the value for `O=C(O)c1cccc(N/N=C/c2ccc(OC(F)(F)F)cc2)c1` was 11.3% (inactive). Same read-out and setting: the value for `COC(=O)C[C@@H]1CC[C@@H]2[C@H](COc3ccc(NC(=O)c4ccccc4)cc3C(=O)N2C)O1` was 41.2% (inactive); that for `CN(C)C(=S)N=Nc1[nH]c2ccccc2c1O` was 7.38% (inactive); that for `Cc1c(Cl)cnc(NC(=O)COC(=O)c2ccc3ncsc3c2)c1Cl` was 13.6% (inactive). With `COc1cc2oc3cc(C#Cc4ccc(N)cc4)ccc3c(=O)c2cc1OC`, under “at 26 µM (top of the series)”, the activity change, negative = cytotoxicity is -4.88% (inactive). Turning to `Cc1c(-c2nc(-c3ccc(C(C)(C)C)cc3)no2)n(C)oc1=O`, the activity change, negative = cytotoxicity (at 26 µM (top of the series)) was -15.2% (inactive). Same read-out and setting: the value for `O=C(Cc1nn[nH]n1)c1ccccc1O` was 1.92% (inactive); that for `Cc1cc(C(=O)NNC(=O)c2ccc(S(=O)(=O)N(C)C)cc2)c(C)o1` was -12.5% (inactive). Still for that read-out and setting: the value for `COCc1cc(C)nc2sc(C(=O)NCCO)c(-n3cccc3)c12` was 12.7% (inactive). Consider `COC(=O)C[C@@H]1CC[C@@H]2[C@H](COc3ccc(NC(=O)c4cccc(Cl)c4)cc3C(=O)N2C)O1`, for which the activity change, negative = cytotoxicity (at 23.5 µM (top of the series)) is -19.6% (inactive). With `C[C@@H]1CN([C@@H](C)CO)S(=O)(=O)c2ccc(C#Cc3ccncc3)cc2O[C@H]1CN(C)C(=O)C1CCOCC1`, under “at 26 µM (top of the series)”, the activity change, negative = cytotoxicity was 19.2% (inactive). On the same count and under the same terms, the result for `COc1ccc(C(CCNCc2ccc(OC(C)C)cc2)C(C)C)cc1` (centres undefined) reads -12.5% (inactive).
